Experimental findings from US20250275964A1, “METHODS OF INHIBITING LIVER-TYPE GLUTAMINASE, GLS2” (CORNELL UNIVERSITY, priority 2019, published 2025) are described below.

Holding throughout (type): cell-based, human
One experiment concerns Hs 578T cells. Kind of experiment: 6-day cell proliferation assay, Hs 578T. The settings on record: proliferation over 6 days. Here is the method:
(§1) Human breast cancer cell lines MCF7, BT-474, T-47D, MDA-MB-453, MDA-MB-231, Hs 578T, HCC38, SK-BR-3, and DU4475 were purchased from the American Type Culture Collection (ATCC) and no additional cell authentication was performed. The TSE human breast cancer cell line was supplied by Dr. Steven Abcouwer (University of Michigan). All breast cancer cells were cultured at 37° C. under a 5% CO2 atmosphere in RPMI 1640 medium containing 2 mM glutamine (Gibco) and supplemented with 10% fetal bovine serum (FBS) (Gibco). The 293T cell line (ATCC) used for generating lentivirus particles was cultured as above but using DMEM, high glucose (Gibco).
(§2) Culture medium was added to 12-well plates (1 ml/well) and wells were seeded with cells at Day 0 as follows. MCF7, T-47D, BT-474, HCC38 cells: […] cells/well. MDA-MB-453 and MDA-MB-231 cells: 1×10^4 cells/well. TSE and Hs 578T cells: 0.3×10^4 cells/well. After 16 hours, culture medium was replaced with fresh medium supplemented with appropriate concentrations of inhibitors and was subsequently replaced every 48 hours. On Day 6 cells were trypsinized and suspended in an appropriate volume of culture medium, and the total number of cells per well was determined using a hemocytometer or a TC20 Automated Cell Counter (Bio-Rad).

For another experiment, the system named is DU4475 cells. In words: 6-day cell proliferation assay, DU4475. The settings on record: DU4475, proliferation over 6 days. The method, then: as §1, §2
Experiment [1] concerns glutamine-mediated TCA cycle anaplerosis in breast cancer cells. In words: [U-13C]-glutamine labeling and metabolite analysis. Here is the method:
The procedures for metabolite extraction from cultured cells are described in previous studies (Cluntun et al., “The Rate of Glycolysis Quantitatively Mediates Specific Histone Acetylation Sites,” Cancer Metab. 3:10 (2015); Liu et al., “A Strategy for Sensitive, Large Scale Quantitative Metabolomics,” J. Vis. Exp. e51358-e51358 (2014), which are hereby incorporated by reference in their entirety). Briefly, adherent cells were grown in 6-well plates in biological triplicate to 80% confluence, medium was rapidly aspirated and cells were washed with cold PBS on ice. Then, 1 ml of extraction solvent (80% methanol/water) cooled to −80° C. was added to each well, and the dishes were transferred to −80° C. for 15 min. Cells were then scraped into the extraction solvent on dry ice. All metabolite extracts were centrifuged at 20,000×g at 4° C. for 10 min. Finally, the solvent in each sample was evaporated in a Speed Vacuum. The cell extracts were dissolved in 15 μl water and 15 μl methanol/acetonitrile (1:1 v/v) (LC-MS optima grade, Thermo Fisher Scientific). Samples were centrifuged at 20,000×g for 10 min at 4° C. and the supernatants were transferred to Liquid Chromatography (LC) vials. The injection volume for polar metabolite analysis was 8 μl.
Cells were grown to 80% confluence in 6-well plates with standard culture medium and washed with sterile PBS. Then, culture medium in which glutamine was replaced by [^13C5]-L-glutamine (Cambridge Isotope Laboratories), supplemented with dialyzed FBS (Gibco) and appropriate concentrations of inhibitors was added (1.5 ml/well). At the appropriate time-point, metabolites were extracted as described above.
A hydrophilic interaction liquid chromatography method (HILIC) with an Xbridge amide column (100×2.1 mm, 3.5 μm) (Waters) was employed on a Dionex (Ultimate 3000 UHPLC) for compound separation and detection at room temperature. The mobile phase A was 20 mM ammonium acetate and 15 mM ammonium hydroxide in water with 3% acetonitrile, pH 9.0, and the mobile phase B was acetonitrile. The linear gradient was as follows: 0 min, 85% B; 1.5 min, 85% B, 5.5 min, 35% B; 10 min, 35% B, 10.5 min, 35% B, 14.5 min, 35% B, 15 min, 85% B, and 20 min, 85% B. The flow rate was 0.15 ml/min from 0 to 10 min and 15 to 20 min, and 0.3 ml/min from 10.5 to 14.5 min. All solvents were LCMS grade and purchased from Thermo Fisher Scientific.
The Q Exactive MS (Thermo Scientific) is equipped with a heated electrospray ionization probe (HESI), and the relevant parameters are as listed: evaporation temperature, 120° C.; sheath gas, 30; auxiliary gas, 10; sweep gas, 3; spray voltage, 3.6 kV for positive mode and 2.5 kV for negative mode. Capillary temperature was set at 320° C., and S-lens was 55. A full scan range from 60 to 900 (m/z) was used. The resolution was set at 70,000. The maximum injection time was 200 ms. Automated gain control (AGC) was targeted at 3,000,000 ions.
Raw data collected from LC-Q Exactive MS were processed on Sieve 2.0 (Thermo Scientific) and ToxID 2.0 (Thermo Scientific). Peak alignment and detection were performed according to the protocol described by Thermo Scientific. For targeted metabolite analysis, the method ‘peak alignment and frame extraction’ was applied. An input file of theoretical m/z and detected retention time of 204 known metabolites was used for targeted metabolites analysis with data collected in positive mode, while a separate input file of 278 metabolites was used for negative mode. M/Z width was set at 10 ppm. The output file including detected m/z and relative intensity in different samples was obtained after data processing. The quantity of the metabolite fraction analyzed was adjusted to the corresponding protein concentration and cell count upon processing a parallel 6-well plate. Quantitation and statistics were calculated and visualized with Microsoft Excel, MORPHEUS and MetaboAnalyst online software.

For the molecule `O=C(Cc1ccccc1)Nc1nnc(CCSCCc2nnc(NC(=O)Cc3ccccc3)s2)s1` [BPTES], the values for the EC50 in the experiment with Hs 578T cells and in the experiment with DU4475 cells were 3.7 µM and > 20 µM, respectively. Besides, the “supply of glutamine-derived carbon to glutamate and the TCA cycle” value in experiment [1] (Hs 578T, 10 μM) is “potently inhibited”; in experiment [1] (MDA-MB-231, 10 μM) it was “potently inhibited”. The glutamine anaplerosis entry in experiment [1] (MCF7, 10 μM) is on record as “partially blocked”. Further, in experiment [1] (MDA-MB-453, 10 μM), the glutamine-mediated anaplerosis entry is “no impact”.

As to `CN(C)c1ccc(C2Nc3ccc4ccccc4c3C3=C2C(=O)CC(C)(C)C3)cc1Br` (centres unmarked) [Compound 968], the EC50 in the experiment with Hs 578T cells and in the experiment with DU4475 cells was 4 µM each time. Besides, the “anaplerosis effect compared between cell lines” value in experiment [1] (10 μM, MDA-MB-453 versus MDA-MB-231) was “more pronounced in MDA-MB-453 cells than MDA-MB-231 cells”. In addition, the “total abundance of TCA cycle intermediates” value in experiment [1] (MDA-MB-231 and MDA-MB-453, 10 μM, different periods of time) is on record as “decreased”. Also, the “glutamine-mediated TCA cycle anaplerosis” value in experiment [1] (basal- and luminal-subtype cells, 10 μM, 10, 24 and 72 hours) is on record as “time-dependent inhibition”.
